Experimental data taken from patent US20080102127A1, “HYBRID LIPID-POLYMER NANOPARTICULATE DELIVERY COMPOSITION” (priority 2006, published 2008).

System: Escherichia Coli (strain O157)
Experiment: Sepsis model induced in mice by Escherichia Coli (strain O157)
Assay type: in vivo
Details: BALB/c mice, E. coli O157 2.5×10^8 cells i.p.; single intravenous injection 25 mg/kg (antibiotic base) 4 h post infection; n=10
Protocol: Antibacterial efficacy of antibiotics in hybrid polymer-lipid nanoparticles was evaluated “in vivo” in a sepsis model, induced in mice (BALB/C line) by Escherichia Coli (strain O157). E. Coli O157 strain was chosen as a model infection as one of the most common pathogens that cause nosocomial infections.
Female BALB/c mice 6-8 weeks old were infected intraperitoneally with E. coli (strain O157) at a dose of 2.5×10^8 cells off E. coli per mouse.
The infected animals were randomized in groups (n=10) and received one of the following formulations: […]
Streptomycin formulations: 1) Saline; 2) Streptomycin solution in saline, 5 mg/ml 3) Streptomycin in hybrid polymer-lipid nanoparticles (Example 30 in Table 1), 5 mg/ml.
Gentamycin formulations: 1) Saline 2) Gentamycin solution in saline, 2.5 mg/ml; 3) Gentamycin in hybrid polymer-lipid nanoparticles (Example 24 in Table 1), 2.5 mg/ml.
The formulations were injected intraperitoneally (Streptomycin) or intravenously (Gentamycin) in the doses of 1×25 mg/kg (calculated by antibiotic base) 4 h post infection.

Gentamycin [Gentamycin solution in saline]
survival of the animals at Day 10: 20%
